The text below walks through data of patent US10065990B2, “Cyclic peptide compound, and preparation method, pharmaceutical composition and use thereof” (HANGZHOU GUANYU BIO-MEDICAL CO., LTD, priority 2013, dated 2018).

In experiment [1] the test system is H1975 (non-small cell lung adenocarcinoma). As to the kind of experiment: MTT cancer cell growth inhibition. The class given is cell-based. The following applies: Homo sapiens, NCI-H1975, 72 h, MTT, 72 hours incubation, H1975 cells; read-out: GI50 H1975. In short, it runs like this: (§1)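 Read-out was formazan absorbance at 570 nm after a 4 h MTT step and DMSO solubilisation, converted to cell viability and fitted for GI50. Beforehand, cells (1500/well, overnight attachment) were treated with compound at 10^−5 to 10^−10 M for 72 h at 37° C.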

For experiment [2], the system named is MCF-7 (human breast cancer cells). In words: MTT cancer cell growth inhibition. It is filed as cell-based. The following applies: 72 hours incubation, read-out: GI50 MCF. A digest of the protocol:
as §1

In experiment [3] the test system is Hela (human cervical cancer cells). As to the kind of experiment: MTT cancer cell growth inhibition. It is filed as cell-based. The following applies: MTT, 72 hours incubation, read-out: GI50 Hela. A digest of the protocol: as §1
Experiment [4] relates to DU145 (human prostate cancer cells). As to the kind of experiment: MTT cancer cell growth inhibition. The class given is cell-based. The following applies: Homo sapiens, DU-145, 72 h, MTT, 72 hours incubation, read-out: GI50 Du1. In short, it runs like this: as §1
Experiment [5] deals with MOLT-4 (human acute lymphoblastic leukemia cells). As to the kind of experiment: MTT cancer cell growth inhibition. The class given is cell-based. The following applies: Homo sapiens, MOLT-4, 72 h, MTT, 72 hours incubation, read-out: GI50 Mol. In short, it runs like this:
as §1

Experiment [6] relates to HCC827 (human non-small cell lung cancer cells). As to the kind of experiment: MTT cancer cell growth inhibition. The following applies: Homo sapiens, HCC827, 72 h, MTT, 72 hours incubation, HCC827 cells; read-out: GI50 HCC827. The class given is cell-based. In short, it runs like this:
as §1

Experiment [7] concerns SGC-7901 (human gastric cancer cells). As to the kind of experiment: MTT cancer cell growth inhibition. The class given is cell-based. The conditions noted are these: Homo sapiens, SGC-7901, 72 h, MTT, 72 hours incubation, SGC-7901 cells; read-out: GI50 SGC-7901. A digest of the protocol: as §1
Experiment [8] concerns BGC-823 (human gastric cancer cells). As to the kind of experiment: MTT cancer cell growth inhibition. The class given is cell-based. The conditions noted are these: Homo sapiens, BGC-823, 72 h, MTT, 72 hours incubation, read-out: GI50 BG. In short, it runs like this:
as §1

The test system of experiment [9] is lncap (prostate cancer cells). As to the kind of experiment: MTT cancer cell growth inhibition. It is filed as cell-based. The following applies: Homo sapiens, LNCaP, 72 h, MTT, 72 hours incubation, read-out: GI50 lnca. A digest of the protocol:
as §1

Experiment [10] deals with Huh-7 (human hepatoma cells). In words: MTT cancer cell growth inhibition. The class given is cell-based. The conditions noted are these: Homo sapiens, Huh-7, 72 h, MTT, 72 hours incubation, Huh-7 cells; read-out: GI50 Huh-7. A digest of the protocol:
as §1

In experiment [11] the test system is PANC-1 (Pac-1, human pancreatic cancer cells). As to the kind of experiment: MTT cancer cell growth inhibition. The class given is cell-based. The following applies: Homo sapiens, PANC-1, 72 h, MTT, 72 hours incubation, read-out: GI50 PAN. A digest of the protocol:
as §1

Experiment [12] deals with K562 (human leukemia cells). As to the kind of experiment: MTT cancer cell growth inhibition. It is filed as cell-based. The conditions noted are these: Homo sapiens, K562, 72 h, MTT, 72 hours incubation, K562 cells; read-out: GI50 K562. A digest of the protocol: as §1
In experiment [13] the test system is Bel-7402 (human hepatoma cells). In words: MTT cancer cell growth inhibition. It is filed as cell-based. The following applies: MTT, 72 hours incubation, Bel-7402 cells, read-out: GI50 Bel-7402. In short, it runs like this: as §1
The subject of experiment [14] is A549 (human lung cancer cells). As to the kind of experiment: MTT cancer cell growth inhibition. It is filed as cell-based. The following applies: Homo sapiens, A549, 72 h, MTT, 72 hours incubation, read-out: GI50 A54. In short, it runs like this: as §1
In experiment [15] the test system is KBM-5 (human chronic myelogenous leukemia). In words: MTT cancer cell growth inhibition. The class given is cell-based. The following applies: Homo sapiens, KBM5, 72 h, MTT, 72 hours incubation, KBM-5 cells; read-out: GI50 KBM-5. A digest of the protocol: as §1
Experiment [16] deals with KBM5-T315I (human chronic myelogenous leukemia). As to the kind of experiment: MTT cancer cell growth inhibition. The conditions noted are these: Homo sapiens, 72 h, MTT, 72 hours incubation, KBM5-T315I cells; read-out: GI50 KBM5-T315I. The class given is cell-based. In short, it runs like this: as §1
The subject of experiment [17] is N-87 (human gastric cancer cells). As to the kind of experiment: MTT cancer cell growth inhibition. It is filed as cell-based. The conditions noted are these: Homo sapiens, 72 h, MTT, 72 hours incubation, N-87 cells; read-out: GI50 N-87. A digest of the protocol:
as §1

Experiment [18] relates to MDA-MB-231 (breast cancer cells). In words: MTT cancer cell growth inhibition. The conditions noted are these: Homo sapiens, MDA-MB-231, 72 h, read-out: GI50 MDA-MB-231, MTT, 72 hours incubation, MDA-MB-231 cells. It is filed as cell-based. A digest of the protocol:
as §1

Experiment [19] relates to U937 (human leukemia cells). As to the kind of experiment: MTT cancer cell growth inhibition. The conditions noted are these: MTT, 72 hours incubation, read-out: GI50 U93. The class given is cell-based. In short, it runs like this:
as §1

Experiment [20] has as its system HT1080 (human fibrosarcoma cells). As to the kind of experiment: MTT cancer cell growth inhibition. The class given is cell-based. The following applies: MTT, 72 hours incubation, read-out: GI50 HT1. A digest of the protocol:
as §1

In experiment [21] the target is T1, HDAC7 (Homo sapiens, UniProt Q8WUI4).
T1 sequence (Q8WUI4 1-952): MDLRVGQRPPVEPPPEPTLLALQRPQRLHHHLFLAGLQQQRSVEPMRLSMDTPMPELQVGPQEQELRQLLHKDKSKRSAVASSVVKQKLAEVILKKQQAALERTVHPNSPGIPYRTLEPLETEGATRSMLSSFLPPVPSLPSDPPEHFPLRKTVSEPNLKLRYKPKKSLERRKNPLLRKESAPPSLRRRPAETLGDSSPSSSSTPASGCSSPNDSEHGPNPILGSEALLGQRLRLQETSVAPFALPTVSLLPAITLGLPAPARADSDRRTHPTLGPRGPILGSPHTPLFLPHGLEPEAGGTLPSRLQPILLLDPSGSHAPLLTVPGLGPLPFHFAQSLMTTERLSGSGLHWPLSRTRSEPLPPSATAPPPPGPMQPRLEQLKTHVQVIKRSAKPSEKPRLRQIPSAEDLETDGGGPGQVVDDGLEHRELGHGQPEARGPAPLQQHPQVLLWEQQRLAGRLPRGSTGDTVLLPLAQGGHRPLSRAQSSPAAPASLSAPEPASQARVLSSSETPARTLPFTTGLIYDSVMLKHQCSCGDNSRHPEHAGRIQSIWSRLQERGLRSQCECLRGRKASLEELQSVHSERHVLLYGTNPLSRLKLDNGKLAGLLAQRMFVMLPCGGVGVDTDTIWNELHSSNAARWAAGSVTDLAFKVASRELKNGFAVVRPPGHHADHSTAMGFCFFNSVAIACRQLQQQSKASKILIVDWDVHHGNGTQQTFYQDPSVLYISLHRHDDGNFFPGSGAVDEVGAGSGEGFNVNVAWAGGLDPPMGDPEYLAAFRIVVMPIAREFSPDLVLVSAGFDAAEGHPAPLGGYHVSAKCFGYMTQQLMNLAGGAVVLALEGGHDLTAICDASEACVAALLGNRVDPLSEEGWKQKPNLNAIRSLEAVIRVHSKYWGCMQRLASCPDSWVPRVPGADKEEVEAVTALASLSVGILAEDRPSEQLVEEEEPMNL
As to the kind of experiment: HDAC biochemical activity measurement (fluorescent substrate deacetylation).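 Also: fluorogenic deacetylation assay using acetyl-lysine substrate at 20 µM, enzyme and compound incubated 30 min at 37 °C, then developer added, fluorescence read at 360/460 nm.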 The conditions noted are these: HDAC7; 37° C. 30 minutes.

Where two headings read alike, the source gives them in different places.

As to `C/C=C1\NC(=O)c2nc(ccc2SC)CNC(=O)C[C@@H](/C=C/CCSC(=O)CCCC)OC(=O)[C@H](C(C)C)NC1=O` [Compound 156], the GI50 in experiment [1] came out at 18 nM; in experiment [2] (Homo sapiens, MCF7, 72 h, MCF-7 cells) it was 20 nM; in experiment [3] (Homo sapiens, HeLa, 72 h, Hela cells) it was 30 nM; in [4] (DU145 cells), 80 nM; in [5] (MOLT-4 cells), 10 nM; in [6], 43 nM. The GI50 in experiment [7] came to 45 nM; in [8] (BGC-823 cells), 50 nM; in experiment [9] (lncap cells), 30 nM; in [10] it was 35 nM; in [11] (PANC-1 cells), 50 nM; in experiment [12] it was 31 nM. Besides, the GI50 turned out to be 23 nM in experiment [13] (Homo sapiens, Bel-7402, 72 h); 30 nM in experiment [14] (A549 cells); 17 nM in experiment [15]; 33 nM in experiment [16]; 65 nM in experiment [17]; 63 nM in [18]. Besides, the GI50 in [19] (Homo sapiens, U-937, 72 h, U937 cells) is 20 nM; in [20] (Homo sapiens, HT-1080, 72 h, HT1080 cells) it was 80 nM. Further, the “IC50 HDAC7” value in experiment [21] was “no activity”.
`C/C=C1\NC(=O)c2ccc(C)c(n2)CNC(=O)C[C@@H](/C=C/CCSC(C)=O)OC(=O)[C@H](Cc2ccccc2)NC1=O` [Example 68]: the GI50 in experiment [1] amounted to 35 nM; in experiment [2] (Homo sapiens, MCF7, 72 h), 30 nM; in experiment [3] (Homo sapiens, HeLa, 72 h), 50 nM; in experiment [4] it was 20 nM; in experiment [5] it was 20 nM; in experiment [6], 83 nM. Moreover, the GI50 was 29 nM in experiment [7]; 40 nM in [8]; 20 nM in [9]; 22 nM in experiment [10]; 80 nM in [11]; 26 nM in [12]. Besides, the GI50 in experiment [13] (Homo sapiens, Bel-7402, 72 h) stood at 83 nM; in experiment [14], 20 nM; in experiment [15] it was 51 nM; in experiment [16] it was 34 nM; in experiment [17] it was 43 nM; in experiment [18], 22 nM. In addition, the GI50 in experiment [19] (Homo sapiens, U-937, 72 h) was found to be 30 nM; in experiment [20] (Homo sapiens, HT-1080, 72 h) it was 80 nM. The “IC50 HDAC7” value in [21] is reported as “no activity”.
As for `C/C=C1\NC(=O)c2ccc(F)c(n2)CNC(=O)C[C@@H](/C=C/CCS)OC(=O)[C@H](CC)NC1=O` [Compound 111], the 50% growth inhibitory concentration (GI50) in experiment [1] was 27 nM; in experiment [2] (Homo sapiens, MCF7, 72 h), 20 nM; in experiment [3] (Homo sapiens, HeLa, 72 h), 80 nM; in experiment [4] it was 60 nM; in [5] it was 20 nM; in [6], 57 nM. Also, the GI50 in [7] was 73 nM; in experiment [8], 30 nM; in experiment [9], 20 nM; in experiment [10], 38 nM; in [11], 80 nM; in experiment [12], 37 nM. The GI50 in experiment [13] (Homo sapiens, Bel-7402, 72 h) was determined as 36 nM; in experiment [14] it was 50 nM; in experiment [15], 53 nM; in experiment [16], 35 nM; in experiment [17], 28 nM; in experiment [18] it was 38 nM. For the same molecule, the GI50 in [19] (Homo sapiens, U-937, 72 h) was 50 nM; in experiment [20] (Homo sapiens, HT-1080, 72 h) it was 80 nM. In addition, the “IC50 HDAC7” value in [21] is recorded as “no activity”.
Take `C/C=C1\NC(=O)c2nc(ccc2SC)CNC(=O)C[C@@H](/C=C/CCSC(C)=O)OC(=O)[C@H](C)NC1=O` [Compound 183]: the GI50 in [1] turned out to be 41 nM; in experiment [2] (MCF-7 cells), 40 nM; in [3] (Hela cells), 110 nM; in experiment [4] (DU145 cells), 30 nM; in experiment [5] (MOLT-4 cells), 60 nM; in experiment [6], 46 nM. In addition, the GI50 in experiment [7] is 48 nM; in experiment [8] (BGC-823 cells), 60 nM; in experiment [9] (lncap cells) it was 60 nM; in experiment [10], 47 nM; in experiment [11] (PANC-1 cells) it was 50 nM; in experiment [12], 25 nM. Also, the GI50 came to 25 nM in experiment [13]; 70 nM in experiment [14] (A549 cells); 51 nM in experiment [15]; 65 nM in [16]; 37 nM in [17]; 49 nM in [18]. Further, the figures for the GI50 in [19] (U937 cells) and in experiment [20] (HT1080 cells) were 20 nM and 50 nM, respectively. Also, the “IC50 HDAC7” value in [21] is “no activity”.
